Columns and labels:
[1] = tested on: glycosyltransferase (GTF); dextran sucrase of Leuconostoc mesenteroides; assay: GTF enzyme assay: insoluble dextran formation followed by turbidity at 690 nm; assay type: biochemical; conditions: positive controls: TRIS 2, 10, 100 mM; DJM 10 mM
[2] = tested on: S. mutans biofilm; assay: S. mutans biofilm formation on hydroxyl apatite discs in Modified Robbins Devices, SYTO 9 fluorescence; assay type: cell-based, Streptococcus mutans; conditions: FIG. 12; 5 μg/ml (sub-MIC)
Description: A first example illustrates the influence of extracts according to the invention on the development of a S. mutans biofilm. Hereby a model system for the study of biofilm formation on discs was used. The system comprises the irrigation of a growing medium and micro-organisms on discs and to develop the formation of microbial biofilms thereon. The system permits to compare biomasses of biofilms which were and were not exposed to plant extracts according to the invention. Since teeth comprise hydroxyl apatite (HAP), discs comprising HAP (Clarkson Chromatography Products, South Williamsport, Pa., USA) were used for each experiment. […] Before starting biofilm experiments, the minimum inhibitory concentration (MIC value) was determined for each plant extract. […] Quantification of biofilm formation was done by putting the HAP discs in a microtiter plate, followed by staining the discs with a SYTO®9 solution, that stains the DNA of living bacteria as well as of dead bacteria. After an incubation period of approximately 15 minutes the microtiter plate was scanned in an automatic microtiter plate reader (Wallac 1420 Multilabel Counter (Victor^2™; Perkin Elmer Life and Analytical Sciences, Boston, Mass., USA) able to measure absorption as well as fluorescence and luminescence.

Row | Compound | absorption of formed dextran with known GTF inhibitors [1] | average fluorescence values compared with positive control BHIS [2]
1 | OC[C@H]1NC[C@H](O)[C@@H](O)[C@@H]1O [DJM, 1-deoxynojirimycine] | decrease in absorption | 
2 | Cc1cc(O)c2c(c1)C(=O)c1cc(O)cc(O)c1C2=O [emodin] |  | significantly lower that those of the positive control BHIS
3 | NC(CO)(CO)CO [TRIS] | decrease in absorption | 
